± gives the standard deviation of the averaged measurements.
Key:
Assay in all cases: level (log10 ratio to DMSO vehicle control); higher = higher biomarker level / cell amount than vehicle control
Conditions in all cases: in DMSO
[1] = compound: C=CC(=O)OCCC(F)(F)C(F)(F)C(F)(F)C(F)(F)F [2-(Perfluorobutyl)ethyl acrylate]
Procedure: (§1)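 BioMAP Diversity Plus panel of 12 human primary cell co-culture systems (3C, 4H, LPS, SAg, BT, BF4T, BE3C, CASM3C, HDF3CGF, KF3CT, MyoF, Mphg). Compounds were added 1 h before stimulation and left for 24 h (MyoF 48 h; BT 72 h for soluble read-outs or 6 d for IgG). Biomarkers were read by ELISA, cytotoxicity by SRB, PBMC viability and proliferation by Alamar Blue. Each well value was divided by the mean of 8 DMSO control wells on the same plate and log10 transformed; duplicate blinded samples were tested at 4 concentrations.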

[2] = compound: N=C(N)C(F)(F)C(F)(F)C(F)(F)C(F)(F)C(F)(F)C(F)(F)C(F)(F)F [Perfluorooctanamidine]
Procedure: as §1

[3] = compound: O=C(O)C(F)(F)C(F)(F)C(F)(F)C(F)(F)C(F)(F)C(F)(F)C(F)(F)C(F)(F)C(F)(F)C(F)(F)C(F)(F)C(F)(F)F [Perfluorotridecanoic acid]
Procedure: as §1

[4] = compound: O=C(O)C(F)(F)C(F)(F)C(F)(F)C(F)(F)C(F)(F)F [Perfluorohexanoic acid]
Procedure: as §1

[5] = compound: O=P(O)(O)CCC(F)(F)C(F)(F)C(F)(F)C(F)(F)C(F)(F)C(F)(F)C(F)(F)C(F)(F)F [((Perfluorooctyl)ethyl)phosphonic acid]
Procedure: as §1

[6] = compound: O=S(=O)(O)C(F)(F)C(F)(F)C(F)(F)C(F)(F)C(F)(F)C(F)(F)C(F)(F)C(F)(F)F [Potassium perfluorooctanesulfonate]
Procedure: as §1

Test System | level (log10) ([1]; 6700 nM) | level (log10) ([1]; 20000 nM) | level (log10) ([1]; 60000 nM) | level (log10) ([2]; 6700 nM) | level (log10) ([2]; 20000 nM) | level (log10) ([2]; 60000 nM) | level (log10) ([3]; 1500 nM) | level (log10) ([3]; 4400 nM) | level (log10) ([3]; 13000 nM) | level (log10) ([3]; 40000 nM) | level (log10) ([4]; 6700 nM) | level (log10) ([4]; 20000 nM) | level (log10) ([4]; 60000 nM) | level (log10) ([5]; 6700 nM) | level (log10) ([5]; 20000 nM) | level (log10) ([5]; 60000 nM) | level (log10) ([6]; 6700 nM) | level (log10) ([6]; 20000 nM) | level (log10) ([6]; 60000 nM)
CASM3C:CCL2/MCP-1 | -0.001 ± 0.0099 | -0.0085 ± 0.0064 | -0.0035 ± 0.0064 | 0.008 ± 0.024 | 0.011 ± 0.034 | 0.085 | -0.0135 ± 0.0021 | -0.043 ± 0.033 | -0.04 ± 0.033 | 0.0315 ± 0.033 | -0.014 ± 0.0042 | 0.0025 ± 0.021 | 0.008 ± 0.027 | -0.007 ± 0.0071 | -0.0085 ± 0.013 | 0.012 ± 0.058 | 0.001 ± 0.024 | 0.01 ± 0.0057 | 0.0405 ± 0.021
HDF3CGF:CCL2/MCP-1 | -0.032 ± 0.0085 | -0.059 ± 0.025 | -0.117 ± 0.054 | -0.0075 ± 0.0035 | -0.005 ± 0.018 | -0.068 | 0.0155 ± 0.043 | -0.039 ± 0.082 | -0.018 ± 0.018 | -0.0145 ± 0.015 | -0.0145 ± 0.00071 | -0.009 ± 0.03 | -0.0205 ± 0.04 | 0.028 ± 0.011 | -0.005 ± 0.0014 | -0.0855 ± 0.056 | 0.002 ± 0.011 | -0.003 ± 0.0042 | 0.001 ± 0.017
3C:CD141/Thrombomodulin | -0.059 ± 0.027 | -0.0955 ± 0.025 | -0.142 ± 0.027 | -0.015 ± 0.031 | -0.021 ± 0.024 | -0.013 | -0.0075 ± 0.059 | -0.0355 ± 0.079 | -0.042 ± 0.065 | -0.0505 ± 0.071 | -0.0205 ± 0.005 | -0.022 ± 0.027 | -0.006 | -0.0115 ± 0.00071 | -0.0115 ± 0.0078 | 0.013 ± 0.016 | 0.007 ± 0.018 | -0.0055 ± 0.033 | 0.041 ± 0.0071
lMphg:CD69 | -0.0065 ± 0.016 | -0.006 ± 0.011 | -0.024 ± 0.0057 | -0.048 ± 0.0028 | -0.052 ± 0.0085 | 0.029 | -0.0045 ± 0.019 | -0.0685 ± 0.018 | -0.066 ± 0.04 | -0.0555 ± 0.013 | 0.005 ± 0.035 | -0.003 ± 0.0071 | -0.017 ± 0.0042 | -0.0125 ± 0.013 | -0.0425 ± 0.04 | 0.0275 ± 0.043 | -0.04 ± 0.0028 | -0.052 ± 0.02 | -0.074 ± 0.04
lMphg:CCL2/MCP-1 | -0.0335 ± 0.0078 | -0.0445 ± 0.0078 | -0.012 ± 0.04 | -0.03 ± 0.016 | -0.006 ± 0.0085 | 0.021 | -0.0115 ± 0.018 | 0.001 ± 0.017 | -0.004 ± 0.023 | 0.0275 ± 0.028 | -0.0065 ± 0.028 | -0.021 ± 0.0099 | -0.014 ± 0.041 | -0.0325 ± 0.0092 | -0.059 ± 0.024 | -0.039 ± 0.04 | -0.0275 ± 0.018 | -0.013 ± 0.047 | -0.0155 ± 0.026
BE3C:Keratin 8/18 | -0.0135 ± 0.025 | 0 ± 0.016 | 0.006 ± 0.013 | -0.0165 ± 0.0021 | -0.014 ± 0.0057 | 0.007 | 0.0095 ± 0.0078 | 0.016 ± 0.0042 | -0.0035 ± 0.0021 | 0.005 ± 0.0014 | -0.017 ± 0.0057 | -0.0125 ± 0.0035 | -0.0175 ± 0.021 | -0.015 ± 0.011 | -0.012 ± 0.0028 | -0.006 ± 0.021 | 0.0225 ± 0.00071 | 0.013 ± 0.0085 | -0.0155 ± 0.019
lMphg:IL-1alpha | -0.026 ± 0.028 | -0.033 ± 0.0028 | 0.0145 ± 0.04 | -0.011 ± 0.024 | -0.004 ± 0.044 | 0.027 | -0.0415 ± 0.0035 | -0.0175 ± 0.0078 | -0.0105 ± 0.052 | -0.0015 ± 0.0092 | 0.0035 ± 0.04 | 0 ± 0.011 | -0.009 ± 0.033 | -0.014 ± 0.0099 | -0.0245 ± 0.025 | 0.02 ± 0.0042 | -0.003 ± 0.028 | 0.0235 ± 0.015 | 0.0125 ± 0.012
HDF3CGF:TIMP-1 | -0.0375 ± 0.033 | -0.0285 ± 0.0064 | -0.053 ± 0.03 | 0.013 ± 0.042 | 0.018 ± 0.05 | 0.092 | 0.027 ± 0.028 | -0.0075 ± 0.044 | -0.023 ± 0.069 | -0.04 ± 0.051 | -0.0005 ± 0.0078 | -0.002 ± 0.016 | 0.0025 ± 0.015 | -0.03 ± 0.0057 | -0.06 ± 0.018 | -0.0575 ± 0.044 | 0.001 ± 0.024 | -0.001 ± 0.016 | 0.097 ± 0.061
CASM3C:Serum Amyloid A | -0.007 | -0.0175 ± 0.016 | -0.0305 ± 0.08 | 0.001 ± 0.0014 | -0.0085 ± 0.018 | 0.053 | 0.0495 ± 0.086 | 0.074 ± 0.052 | 0.181 ± 0.075 | 0.157 ± 0.11 | 0.0315 ± 0.012 | -0.003 ± 0.0028 | 0.01 ± 0.047 | -0.0065 ± 0.044 | -0.0225 ± 0.015 | 0.083 ± 0.055 | 0.0085 ± 0.026 | 0.001 ± 0.03 | 0.0125 ± 0.057
HDF3CGF:Proliferation 72hr | -0.0325 ± 0.0092 | -0.124 ± 0.054 | -0.197 ± 0.041 | -0.0255 ± 0.043 | -0.0515 ± 0.1 | -0.564 | 0.0615 ± 0.07 | -0.603 ± 0.43 | -0.288 ± 0.069 | -0.233 ± 0.091 | 0.04 ± 0.0014 | 0.015 ± 0.034 | 0.0305 ± 0.037 | 0.017 ± 0.065 | -0.0105 ± 0.087 | -0.374 ± 0.034 | 0.13 ± 0.079 | 0.155 ± 0.09 | -0.732 ± 0.039
MyoF:Collagen III | -0.009 ± 0.016 | -0.006 ± 0.0028 | -0.0265 ± 0.013 | -0.0045 ± 0.015 | 0.003 ± 0.017 | 0.006 | -0.015 ± 0.025 | -0.0115 ± 0.012 | -0.026 ± 0.02 | -0.044 ± 0.0071 | 0.0075 ± 0.012 | 0.003 ± 0.02 | 0.0105 ± 0.0092 | -0.013 ± 0.014 | -0.013 ± 0.017 | -0.073 ± 0.05 | -0.0275 ± 0.018 | -0.028 ± 0.031 | -0.0365 ± 0.025
KF3CT:CXCL9/MIG | -0.0035 ± 0.0021 | 0.008 ± 0.0042 | -0.0235 ± 0.015 | -0.0015 ± 0.011 | -0.0005 ± 0.0092 | 0.015 | -0.002 ± 0.0071 | -0.0015 ± 0.005 | -0.0035 ± 0.0064 | -0.0685 ± 0.079 | 0.0075 ± 0.0064 | 0.0035 ± 0.012 | 0.0095 ± 0.012 | -0.0095 ± 0.0078 | 0 ± 0.0071 | -0.0225 ± 0.0092 | -0.0065 ± 0.0035 | 0.003 ± 0.0042 | 0.008 ± 0.027
CASM3C:SRB | 0.0015 ± 0.0021 | 0.0055 ± 0.005 | 0.0005 ± 0.00071 | -0.0015 ± 0.011 | -0.0105 ± 0.00071 | -0.018 | 0.0075 ± 0.016 | 0.005 ± 0.0042 | -0.002 ± 0.0014 | -0.0065 ± 0.00071 | -0.001 | -0.013 ± 0.0028 | -0.0005 ± 0.0021 | -0.0115 ± 0.0035 | -0.017 ± 0.0028 | -0.008 ± 0.0085 | 0.011 ± 0.0042 | 0.004 | 0.006
MyoF:MMP-1 | 0.0005 ± 0.0092 | 0.024 ± 0.017 | 0.0405 ± 0.012 | -0.025 ± 0.024 | -0.01 | 0.062 | -0.0005 ± 0.021 | 0.018 ± 0.016 | -0.025 ± 0.0099 | 0.014 ± 0.02 | -0.0115 ± 0.0035 | -0.0055 ± 0.019 | 0.0235 ± 0.025 | -0.036 ± 0.0085 | 0.007 ± 0.0085 | 0.0865 ± 0.04 | -0.04 ± 0.021 | -0.047 ± 0.031 | 0.0305 ± 0.044
CASM3C:CD87/uPAR | -0.006 ± 0.024 | -0.027 ± 0.018 | -0.023 ± 0.0042 | -0.011 ± 0.016 | -0.02 ± 0.037 | -0.034 | 0.0185 ± 0.011 | 0.028 ± 0.0014 | -0.01 ± 0.013 | 0.0015 ± 0.019 | -0.003 ± 0.027 | 0.0085 ± 0.022 | -0.012 ± 0.0014 | -0.022 ± 0.013 | -0.0345 ± 0.015 | -0.041 ± 0.014 | -0.0025 ± 0.012 | -0.016 ± 0.0014 | -0.0095 ± 0.011
